Assay results: publication PMC6271978, “1H-2,3-Dihydroperimidine Derivatives: A New Class of Potent Protein Tyrosine Phosphatase 1B Inhibitors” (Molecules, 2013)

Columns and labels:
[1] = biological target: T1, LAR (Homo sapiens, UniProt P10586); assay: LAR inhibition, OMFP substrate assay; type: biochemical; settings: NA = no activity (inhibitory ratio lower than 50% at the dose of 20 μg/mL), PC = Na3VO4
T1 sequence (P10586 1352-1607 limits assumed): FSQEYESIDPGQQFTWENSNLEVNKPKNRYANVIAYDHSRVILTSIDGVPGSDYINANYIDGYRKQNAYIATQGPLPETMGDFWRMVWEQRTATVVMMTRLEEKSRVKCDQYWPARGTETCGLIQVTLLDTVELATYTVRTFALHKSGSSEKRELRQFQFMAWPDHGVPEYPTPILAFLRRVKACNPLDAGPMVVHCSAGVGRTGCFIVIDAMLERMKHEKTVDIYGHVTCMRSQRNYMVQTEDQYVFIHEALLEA
Experimental: (§1) In addition to potency improvements, we investigated the selectivity of three representative compounds, namely, 1, 46 and 49 against other PTPs (TCPTP, SHP-1, SHP-2, LAR). […] Besides TCPTP, we tested the inhibitory activity of these compounds on other three homogenous enzymes SHP-1, SHP-2, and LAR [25].
A colorimetric assay to measure inhibition against PTP1B and TCPTP was performed in 96-well plates. Briefly, the tested compounds were solubilized in DMSO and serially diluted into concentrations for the inhibitory test. The assays were carried out in a final volume of 100 μL containing 50 mmol/L MOPS, pH 6.5, 2 mmol/L pNPP, 30 nmol/L GST-PTP1B or GST-TCPTP,and 2% DMSO, and the catalysis of pNPP was continuously monitored on a SpectraMax 340 microplate reader at 405 nm for 3 min at 30 °C. The IC50 value was calculated from the nonlinear curve fitting of the percent inhibition [inhibition (%)] vs. the inhibitor concentration using the Equation (1): Inhibition (%) = 100/[1 + (IC50/[I]k)] (1) where k is the Hill coefficient. […] Briefly, the enzymatic activity of the SHP1, SHP2 and LARwere determined at 30 °C by monitoring the dephosphorylation of substrate 3-o-methylfluorescein phosphate (OMFP), product was then detected at a 485 nm excitation wavelength and 530 nm emission wavelength by the EnVision multilabe plate reader (Perkin-Elmer Life Sciences, Boston, MA, USA). […]

[2] = tested on: tyrosine phosphorylation of insulin receptor β in CHO/hIR cells; assay: Tyrosine phosphorylation of insulin receptor in CHO/hIR cells (Western blot); type: cell-based, hamster CHO cells expressing human insulin receptor; settings: compound 5 µM to 20 µM for 3 h, insulin 10 nM 10 min, versus DMSO
Experimental: To explore the effect of PTP1B inhibitor in vitro on insulin signaling, CHO cells overexpressing human insulin receptor (CHO/hIR) were treated in presence or absence of compound, then tyrosine phosphorylation level of insulin receptor (p-IR) was detected after stimulated by insulin.
CHO/hIR cells were cultured in F12 nutrient medium including 10% (V/V) FBS, 100 units/mL penicillin and 100 μg/mL streptomycin with 5% CO2 at 37 °C. Cells were serum free starved for 2 h, and then treated with compounds for 3 h, followed with insulin (10 nM, Eli Lilly) for 10 min before harvested. Cells were rinsed twice with precooled 1× PBS and then lysed with 1× SDS loading buffer. Samples were heated at 100 °C for 15 min before electrophoresed with 8% SDS-polyarylamide gel under 80 to 120 volt voltage, and then transferred to nitrocellulose (NC) membranes. NC membranes were blocked for 2 h with 5% BSA (W/V) dissolved in TBST. The membranes incubated with primary antibodies overnight at 4 °C and secondary antibodies for 1 h at room temperature. The primary antibody p-Tyr (PY20) used was from Santa Cruz (Dallas, CA, USA) and β-actin from Sigma (St. Louis, MO, USA), secondary antibody was from Jackson Immuno Research (Philadelphia, PA, USA).

[3] = biological target: T2, SHP-1 (Homo sapiens, UniProt P29350); assay: SHP-1 inhibition, OMFP substrate assay; type: biochemical
T2 construct: made in house
T2 sequence (P29350 whole entry): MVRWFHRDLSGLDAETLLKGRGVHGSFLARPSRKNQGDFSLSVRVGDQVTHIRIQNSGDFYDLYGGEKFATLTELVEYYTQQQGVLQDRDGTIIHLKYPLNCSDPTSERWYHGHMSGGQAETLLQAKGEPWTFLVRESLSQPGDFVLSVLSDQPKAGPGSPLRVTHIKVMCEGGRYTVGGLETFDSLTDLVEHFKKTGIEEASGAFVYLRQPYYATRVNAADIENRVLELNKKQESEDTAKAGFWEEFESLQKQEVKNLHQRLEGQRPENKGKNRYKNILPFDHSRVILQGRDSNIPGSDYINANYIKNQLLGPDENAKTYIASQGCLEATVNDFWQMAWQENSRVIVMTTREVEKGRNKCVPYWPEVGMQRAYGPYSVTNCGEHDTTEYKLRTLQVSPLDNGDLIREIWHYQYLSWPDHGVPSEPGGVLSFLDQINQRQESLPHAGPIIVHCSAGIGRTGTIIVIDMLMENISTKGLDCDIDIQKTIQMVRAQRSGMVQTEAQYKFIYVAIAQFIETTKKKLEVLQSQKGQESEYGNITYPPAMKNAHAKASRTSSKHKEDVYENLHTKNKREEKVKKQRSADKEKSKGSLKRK
Experimental: as §1
A colorimetric assay to measure inhibition against PTP1B and TCPTP was performed in 96-well plates. Briefly, the tested compounds were solubilized in DMSO and serially diluted into concentrations for the inhibitory test. The assays were carried out in a final volume of 100 μL containing 50 mmol/L MOPS, pH 6.5, 2 mmol/L pNPP, 30 nmol/L GST-PTP1B or GST-TCPTP,and 2% DMSO, and the catalysis of pNPP was continuously monitored on a SpectraMax 340 microplate reader at 405 nm for 3 min at 30 °C. The IC50 value was calculated from the nonlinear curve fitting of the percent inhibition [inhibition (%)] vs. the inhibitor concentration using the Equation (1): Inhibition (%) = 100/[1 + (IC50/[I]k)] (1) where k is the Hill coefficient. To study the inhibition on the other PTPase family members, SHP1, SHP2 and LAR were prepared and assays were performed according to procedures described previously. Briefly, the enzymatic activity of the SHP1, SHP2 and LARwere determined at 30 °C by monitoring the dephosphorylation of substrate 3-o-methylfluorescein phosphate (OMFP), product was then detected at a 485 nm excitation wavelength and 530 nm emission wavelength by the EnVision multilabe plate reader (Perkin-Elmer Life Sciences, Boston, MA, USA). The assays were carried out in a final volume of 50 μL containing 50 mmol/L MOPS, pH 6.8, 10 μmol/L OMFP, 20 nmol/L recombinant enzyme, 2 mmol/L dithiothreitol , 1 mmol/L EDTA, and 2% DMSO. The initial rate of the dephosphorylation was presented by the early linear region of the enzymatic reaction kinetic curve, the inhibitory activity of the compound was continuously monitored.

[4] = biological target: T3, PTP1B (GST-PTP1B) (Homo sapiens, UniProt P18031); assay: PTP1B inhibition, colorimetric pNPP assay; type: biochemical; settings: pNPP substrate
T3 sequence (P18031 1-435): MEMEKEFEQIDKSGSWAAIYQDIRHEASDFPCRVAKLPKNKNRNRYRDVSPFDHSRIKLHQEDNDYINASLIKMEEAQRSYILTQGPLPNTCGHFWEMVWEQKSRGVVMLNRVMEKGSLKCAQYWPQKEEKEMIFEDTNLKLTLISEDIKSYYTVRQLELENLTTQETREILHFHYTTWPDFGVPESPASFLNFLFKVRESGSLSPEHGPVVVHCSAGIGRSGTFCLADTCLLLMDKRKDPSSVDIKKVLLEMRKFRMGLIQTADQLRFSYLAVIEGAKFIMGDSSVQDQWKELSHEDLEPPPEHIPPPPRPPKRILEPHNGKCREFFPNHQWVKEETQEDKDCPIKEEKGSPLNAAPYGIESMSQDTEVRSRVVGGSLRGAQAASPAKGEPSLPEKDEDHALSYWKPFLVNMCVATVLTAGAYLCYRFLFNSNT

[5] = means ± SD of three replications, OA/PC = oleanolic acid positive control

What does the source list for `O=C(O)CNC(=O)c1ccc(C2Nc3cccc4cccc(c34)N2)nc1` [Compound 46]?
IC50 LAR [1]: no visible activities; tyrosine phosphorylation level of insulin receptor (p-IR) [2]: greatly improved p-IR level; IC50 ([3]; OMFP substrate, means ± SD of three replications, PC = Na3VO4): 6.01 ± 0.2 µM; selectivity for PTP1B over SHP-1 ([3]; from IC50 values): about 9 fold; inhibition at 20 µg/mL ([4]; PTP1B, compound at 20 μg/mL): 99.5%; IC50 [4, 5]: 0.66 ± 0.03 µM; IC50 PTP1B [4, 5]: submicromolar
